Test results reported in patent US10639251B2, “Method for inhibiting or masking fishy odours” (Symrise AG, priority 2015, dated 2020).
“And” between values parts separate entries of the source, which are not always exact repeats. Equal entries are not always repeated. “Also recorded” adds a separate entry of the source. Where two headings read alike, the source gives them in different places.

How the values were obtained:
hTAAR5 [1] = molecular target: T1, hTAAR5 (Homo sapiens, UniProt O14804); assay: Cre-luciferase reporter gene assay, hTAAR5-mediated responses to TMA in transfected HANA3A cells; format: cell-based; conditions: for IC50: read-out: half maximal inhibitory concentration (IC50)
T1 construct: expressed in transfected cells; host or cells: HANA3A cells
T1 sequence (O14804 1-337): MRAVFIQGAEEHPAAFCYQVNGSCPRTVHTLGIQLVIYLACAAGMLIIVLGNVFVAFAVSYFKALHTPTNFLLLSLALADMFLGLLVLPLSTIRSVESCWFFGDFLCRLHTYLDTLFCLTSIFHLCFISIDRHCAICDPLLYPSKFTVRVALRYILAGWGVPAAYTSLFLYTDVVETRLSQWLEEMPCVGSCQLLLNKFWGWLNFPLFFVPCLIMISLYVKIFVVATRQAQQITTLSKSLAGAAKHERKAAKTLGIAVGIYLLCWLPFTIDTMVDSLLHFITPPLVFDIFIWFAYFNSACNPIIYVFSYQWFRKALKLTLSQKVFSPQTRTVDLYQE
Procedure: (§1) In order to identify suitable antagonist for TMA the protocol of Zhuang and Matsunami for measuring receptor activity with the Dual-Glo Luciferase Assay System (Promega) was adapted [see Nat. Protoc. 3(9), p. 1402-1413 (2008)]. HANA3A cells were maintained under standard conditions in DMEM supplemented with 10% FBS and 100 units/ml penicillin and streptomycin at 37° C. Cells (approximately 15,000 cells/well) were plated on poly-D-lysine-coated 96-well plates (NUNC) and transfected after 24 h with the FuGENE® HD (Promega) transfection reagent according to the manufacturer's protocol. In a 96-well plate, we placed 18 μl transfection reagent, 1-5 μg receptor plasmid, 2 μg pGL4-luciferase reporter, 1 μg pRL-TK-Renilla reporter, 0.5 μg G-protein αolf, 1 μg receptor transport protein (RTP1S) and 1 μg M3 muscarinic acetylcholine receptor (for hOR51E1) to ensure cell surface expression. Cells were stimulated 24 h after transfection for 4 h at 37° C. with test substances diluted in CD 293 medium (1×) (Life Technologies) with 2 mM L-glutamine (Life Technologies) added. After stimulation with test substances, recombinant hTAAR5 activation elevated cAMP and the subsequent expression of the cAMP-dependent reporter gene construct Cre-luciferase. Expression rates of Cre-luciferase were monitored by luminescent enzymatic reactivity. Thus, luminescence signals correlate with receptor activation. The Renilla luciferase reporter driven by a constitutively active TK-promoter (pRL-TK-Renilla) served as an internal control to determine cell viability and transfection efficiency. Firefly luciferase activity to the Renilla luciferase signal was normalized for all wells. The ratios of antagonistic stimulation were normalized to the ratios of agonist stimulation. Furthermore, mock-transfected cells were stimulated to exclude unspecific responses to the tested substances.
To identify blocker substances for hTAAR5-mediated responses to TMA, the Cre-luciferase reporter gene assay was used. Human TAAR5-transfected HANA3A cells were stimulated with a mix of the agonist TMA (300 μM) and 100 μM of a potential blocker substance (FIG. 1).
For more detailed information concerning the type of antagonism (competitive vs. non-competitive) in the following experiments, the pharmacological profile of Timberol® was characterized. To test the concentration dependency of the Timberol® block, a concentration-inhibition curve (FIG. 2a) was measured. The blocking effect was increased with increasing concentrations of Timberol® and decreased with increasing concentrations of the agonist TMA. The latter was reflected by a significant concentration-inhibition curve shift.

murine TAAR5 = molecular target: T2, murine TAAR5 (Mus musculus, UniProt Q5QD14); assay: Cre-luciferase assay, murine TAAR5 responses to TMA; format: cell-based; conditions: Timberol 100 μM
T2 construct: expressed in transfected cells; host or cells: HANA3A cells
T2 sequence (Q5QD14 1-337): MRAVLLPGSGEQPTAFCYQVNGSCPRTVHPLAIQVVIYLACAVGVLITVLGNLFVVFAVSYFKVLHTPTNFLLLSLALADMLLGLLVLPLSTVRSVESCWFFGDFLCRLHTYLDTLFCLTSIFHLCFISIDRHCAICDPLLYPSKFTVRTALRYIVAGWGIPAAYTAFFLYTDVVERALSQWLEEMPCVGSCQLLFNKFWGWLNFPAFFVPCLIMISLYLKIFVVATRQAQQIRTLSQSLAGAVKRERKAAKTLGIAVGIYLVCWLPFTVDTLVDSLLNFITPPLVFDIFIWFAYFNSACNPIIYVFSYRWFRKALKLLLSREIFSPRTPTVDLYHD

MOR42-3 = assay: Cre-luciferase assay, MOR42-3-mediated responses to azelaic acid; format: cell-based, murine; conditions: Timberol 30 μM; agonist below and above EC50
Procedure: (§2) In order to identify suitable antagonist for TMA the protocol of Zhuang and Matsunami for measuring receptor activity with the Dual-Glo Luciferase Assay System (Promega) was adapted [see Nat. Protoc. 3(9), p. 1402-1413 (2008)]. HANA3A cells were maintained under standard conditions in DMEM supplemented with 10% FBS and 100 units/ml penicillin and streptomycin at 37° C. Cells (approximately 15,000 cells/well) were plated on poly-D-lysine-coated 96-well plates (NUNC) and transfected after 24 h with the FuGENE® HD (Promega) transfection reagent according to the manufacturer's protocol. In a 96-well plate, we placed 18 μl transfection reagent, 1-5 μg receptor plasmid, 2 μg pGL4-luciferase reporter, 1 μg pRL-TK-Renilla reporter, 0.5 μg G-protein αolf, 1 μg receptor transport protein (RTP1S) and 1 μg M3 muscarinic acetylcholine receptor (for hOR51E1) to ensure cell surface expression. […] Expression rates of Cre-luciferase were monitored by luminescent enzymatic reactivity. Thus, luminescence signals correlate with receptor activation. […]
(§3) Another experiment was directed to figure out whether the Timberol® block is exclusively mediated by hTAAR5. […] Then the impact of Timberol® on MOR42-3- and hOR51E1-mediated responses to the respective agonists was tested with concentrations below and above the calculated EC50 values. […]

intracellular cAMP = assay: Control experiments: intracellular cAMP level in hTAAR5-transfected HANA3A cells (basal and forskolin-stimulated); format: cell-based, human
Procedure: as §1, with “The Renilla luciferase reporter driven by a constitutively active TK-promoter (pRL-TK-Renilla) served as an internal control to determine cell viability and transfection efficiency. Firefly luciferase activity to the Renilla luciferase signal was normalized for all wells. The ratios of antagonistic stimulation were normalized to the ratios of agonist stimulation. Furthermore, mock-transfected cells were stimulated to exclude unspecific responses to the tested substances.” left out

panelists = assay: Olfactory detection threshold of TMA, 3-alternative forced-choice, ISO 13301; format: in vivo, human
Procedure: In addition, olfactory detection thresholds were assessed in aqueous solutions using a best estimate threshold approach as described in ISO 13301. In brief, samples containing different concentrations of analyte were presented in ascending order in a 3-alternative forced-choice design. Each concentration set consisted of three samples with one deviating sample containing a defined amount of trimethylamine. Samples were presented in amber vials (30 ml) coded with three digits and filled with 10 ml of solution, and panelists were required to designate the sample that differed from the others.
Thresholds of TMA were measured in buffered aqueous solution i) without additive ii) with 1% (m/m) Timberol® and iii) with 0.1% Mugetanol (isointense to 1% Timberol®). These experiments were performed separately on different days with the same panelists. In the case of testing in the presence of fragrance components (Timberol® or Mugetanol), all three samples of a given concentration set contained the same amount of fragrance components and differed only in the presence/absence of TMA. In each session, a total of 10 concentration sets ranging from […] to 1.00×10^−5% (m/m) TMA were evaluated. The concentration doubled in each step.
The aqueous solutions were buffered with TRIS (50 mM), and the pH was adjusted to 9 to have approximately 13% of the TMA in a deprotonated and thus volatile form. Furthermore, an odorless emulsifier was added to a final concentration of 3% (m/m) to dissolve Timberol®.
In a second step, the influence of Timberol® on the perception of TMA was investigated using a psychophysical approach. Therefore the detection thresholds of TMA alone and in the presence of suprathreshold concentrations of Timberol® were tested. Threshold measurements were performed in a 3-alternative forced-choice design according to ISO 13301. A total of 10 concentrations (binary dilution steps) ranging from […] to 1.00×10^−5% (m/m) TMA were examined.

hOR51E1 = molecular target: T3, hOR51E1 (Homo sapiens, UniProt Q8TCB6); assay: Cre-luciferase assay, hOR51E1-mediated responses to nonanoic acid; format: cell-based; design: expressed in transfected cells; host or cells: HANA3A cells; conditions: Timberol 30 μM; agonist below and above EC50
T3 sequence (Q8TCB6 1-318): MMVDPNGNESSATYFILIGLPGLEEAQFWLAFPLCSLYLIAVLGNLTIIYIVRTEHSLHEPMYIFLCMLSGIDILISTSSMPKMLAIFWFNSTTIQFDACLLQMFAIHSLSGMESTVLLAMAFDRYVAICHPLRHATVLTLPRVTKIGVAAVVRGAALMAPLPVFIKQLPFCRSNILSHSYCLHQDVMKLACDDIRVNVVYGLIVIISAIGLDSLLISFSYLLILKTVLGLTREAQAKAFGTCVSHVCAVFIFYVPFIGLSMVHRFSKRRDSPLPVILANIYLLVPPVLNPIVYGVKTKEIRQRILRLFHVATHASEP
Procedure: as §2, §3

humans = conditions: in vivo; cited from earlier work
hTAAR5 [2] = molecular target: T1, hTAAR5; conditions: agonist; cited from earlier work

## CCCC(O)CCC1C(C)CCCC1(C)C (stereo not shown) [Timberol®, Norlimbanol]
hTAAR5 [1]; 30 μM Timberol
  block of average hTAAR5 responses: at least 50%
hTAAR5 [1]; 30 μM Timberol, 30 μM TMA
  block of hTAAR5 response: ~78%
hTAAR5 [1]; 30 μM Timberol, 100 μM TMA
  block of hTAAR5 response: ~56%
hTAAR5 [1]; 100 μM Timberol, 30 μM TMA
  blocking effect: ~96% and 96%±1.7%
hTAAR5 [1]; 100 μM Timberol, 100 μM TMA
  blocking effect: 86%±3.6%
hTAAR5 [1]; 100 μM Timberol, 300 μM TMA
  inhibition of hTAAR5 responses to TMA: 72%±6%
hTAAR5 [1]; TMA 30 μM
  IC50: 16.6 µM
hTAAR5 [1]; TMA 100 μM
  IC50: 27.8 µM
hTAAR5 [1]; TMA 300 μM, putative antagonist 100 μM
  reduction / inhibition of hTAAR5-mediated TMA responses: nearly completely block
Murine TAAR5; 1 μM TMA
  blocking effect on murine TAAR5: 34%±2%
Murine TAAR5
  inhibition of mTAAR5-mediated responses to TMA: able to block; also recorded: inhibits
MOR42-3
  blocking effect on MOR42-3-mediated responses to azelaic acid: no any significant impact; also recorded: No significant blocking effects
Intracellular cAMP; Timberol (100 μM) alone vs unstimulated controls
  basal cAMP production: No significant reduction; also recorded: did not affect
Intracellular cAMP; Timberol (100 μM) mixed with 10 μM forskolin vs forskolin alone
  cAMP levels after forskolin: no significant difference; also recorded: did not affect
panelists; 1% Timberol or 0.1% Mugetanol (isointense)
  influence of additive on TMA detection threshold / perception: abolished the ability to perceive TMA around perithreshold concentrations; also recorded: shifted to a significantly higher concentration
panelists; of the 27 tested subjects
  subjects less sensitive to TMA in the presence of Timberol: 23
hOR51E1
  blocking effect on hOR51E1-mediated responses to nonanoic acid: no any significant impact; also recorded: No significant blocking effects

## CN [methylamine]
humans
  detection threshold in humans: 180 ppm

## CCN(C)C [DMEA, dimethylethylamine]
hTAAR5 [2]
  activation of hTAAR5: less efficacy and potency
